Source: US12077503B2, “Substituted cyclic amides and their use as herbicides” (FMC CORPORATION, priority 2015, dated 2024)

How the values were obtained:
Type in all cases: in vivo
corn (Zea mays) [1] = experiment: Test G Post-Emergence Protocol; conditions: Zea mays, post-emergence, 312 h, read-out: Corn damage rating
In short: (§1)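 Eight days post-sowing, plants received a spray of test compound (acetone/water 50:50, 0.5% Tween 20) at 15.625, 62.5 or 250 g/ha. Glasshouse regime thereafter: 24/16 °C, 14 h light, 65% humidity. Assessment after 13 days on a 0–100 damage scale.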

[2] = tested on: barnyardgrass (Echinochloa crus-galli); experiment: Test G Post-Emergence Protocol; conditions: Echinochloa crus-galli, post-emergence, 312 h, read-out: Barnyardgrass damage rating
In short: as §1

[3] = tested on: ivy-leaved morning glory (Ipomoea hederacea); experiment: Test G Post-Emergence Protocol; conditions: Ipomoea, post-emergence, 312 h, read-out: Morningglory, Ivy-leaved damage rating
In short: as §1

[4] = tested on: giant foxtail (Setaria faberi); experiment: Test G Post-Emergence Protocol; conditions: Setaria faberi, post-emergence, 312 h, read-out: Foxtail, Giant damage rating
In short: as §1

[5] = tested on: velvetleaf (Abutilon theophrasti); experiment: Test G Post-Emergence Protocol; conditions: Abutilon theophrasti, post-emergence, 312 h, read-out: Velvetleaf damage rating
In short: as §1

[6] = tested on: redroot pigweed (Amaranthus retroflexus); experiment: Test G Post-Emergence Protocol; conditions: Amaranthus retroflexus, post-emergence, 312 h, read-out: Pigweed, Redroot damage rating
In short: as §1

corn (Zea mays) [7] = experiment: Test G Pre-Emergence Protocol; conditions: Zea mays, pre-emergence, 312 h, evaluated after 13 days
In short: (§2)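 Scores are visual damage ratings from 0 (no damage) to 100 (total plant kill), taken 13 days after treatment. Compound was sprayed one day post-sowing at 15.625, 62.5 or 250 g/ha in 50:50 acetone/water with 0.5% Tween 20.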

[8] = tested on: barnyardgrass (Echinochloa crus-galli); experiment: Test G Pre-Emergence Protocol; conditions: Echinochloa crus-galli, pre-emergence, 312 h, evaluated after 13 days
In short: as §2

[9] = tested on: ivy-leaved morning glory (Ipomoea hederacea); experiment: Test G Pre-Emergence Protocol; conditions: Ipomoea, pre-emergence, 312 h, evaluated after 13 days
In short: as §2

[10] = tested on: giant foxtail (Setaria faberi); experiment: Test G Pre-Emergence Protocol; conditions: Setaria faberi, pre-emergence, 312 h, evaluated after 13 days
In short: as §2

[11] = tested on: velvetleaf (Abutilon theophrasti); experiment: Test G Pre-Emergence Protocol; conditions: Abutilon theophrasti, pre-emergence, 312 h, evaluated after 13 days
In short: as §2

[12] = tested on: redroot pigweed (Amaranthus retroflexus); experiment: Test G Pre-Emergence Protocol; conditions: Amaranthus retroflexus, pre-emergence, 312 h, evaluated after 13 days
In short: as §2

[13] = 15.625 g ai/ha, evaluated after 13 days (100=total damage to plant; 0=no damage to plant)
[14] = 62.5 g ai/ha, evaluated after 13 days, 100=total damage to plant, 0=no damage to plant
[15] = 250 g ai/ha, evaluated after 13 days, 100=total damage to plant, 0=no damage to plant

COc1ccc([C@@H]2CN(C)C(=O)[C@H]2C(=O)Nc2cccc(F)c2C)cc1Cl (racemic) [Compound 1793]
0%: pest or weed control at 15.625 g/ha [3, 13] | pest or weed control at 15.625 g/ha [5, 13] | pest or weed control at 15.625 g/ha [6, 13] | pest or weed control at 62.5 g/ha [6, 14] | pest or weed control at 250 g/ha [6, 15] | plant injury at 15.625 g/ha (corn (Zea mays) [7]; 15.625 g ai/ha, read-out: Corn damage rating (100=total damage to plant; 0=no damage to plant)) | pest or weed control at 15.625 g/ha ([9]; 15.625 g ai/ha, read-out: Morningglory, Ivy-leaved damage rating (100=total damage to plant; 0=no damage to plant)) | pest or weed control at 62.5 g/ha ([9]; 62.5 g ai/ha, 100=total damage to plant, 0=no damage to plant, read-out: Morningglory, Ivy-leaved damage rating) | pest or weed control at 15.625 g/ha ([11]; 15.625 g ai/ha, read-out: Velvetleaf damage rating (100=total damage to plant; 0=no damage to plant)) | pest or weed control at 62.5 g/ha ([11]; 62.5 g ai/ha, 100=total damage to plant, 0=no damage to plant, read-out: Velvetleaf damage rating) | pest or weed control at 15.625 g/ha ([12]; 15.625 g ai/ha, read-out: Pigweed, Redroot damage rating (100=total damage to plant; 0=no damage to plant)) | pest or weed control at 62.5 g/ha ([12]; 62.5 g ai/ha, 100=total damage to plant, 0=no damage to plant, read-out: Pigweed, Redroot damage rating) | pest or weed control at 250 g/ha ([12]; 250 g ai/ha, read-out: Pigweed, Redroot damage rating (100=total damage to plant; 0=no damage to plant))
50%: plant injury at 250 g/ha (corn (Zea mays) [1]; [15])
90%: pest or weed control at 250 g/ha ([8]; 250 g ai/ha, read-out: Barnyardgrass damage rating (100=total damage to plant; 0=no damage to plant)) | pest or weed control at 62.5 g/ha ([10]; 62.5 g ai/ha, 100=total damage to plant, 0=no damage to plant, read-out: Foxtail, Giant damage rating) | pest or weed control at 250 g/ha ([10]; 250 g ai/ha, read-out: Foxtail, Giant damage rating (100=total damage to plant; 0=no damage to plant))
40%: plant injury at 250 g/ha (corn (Zea mays) [7]; 250 g ai/ha, read-out: Corn damage rating (100=total damage to plant; 0=no damage to plant))
20%: plant injury at 62.5 g/ha (corn (Zea mays) [7]; 62.5 g ai/ha, 100=total damage to plant, 0=no damage to plant, read-out: Corn damage rating) | pest or weed control at 15.625 g/ha ([8]; 15.625 g ai/ha, read-out: Barnyardgrass damage rating (100=total damage to plant; 0=no damage to plant))
10%: plant injury at 15.625 g/ha (corn (Zea mays) [1]; [13]) | pest or weed control at 62.5 g/ha [3, 14] | pest or weed control at 62.5 g/ha [5, 14] | pest or weed control at 250 g/ha ([9]; 250 g ai/ha, read-out: Morningglory, Ivy-leaved damage rating (100=total damage to plant; 0=no damage to plant))
80%: pest or weed control at 250 g/ha [2, 15] | pest or weed control at 62.5 g/ha [4, 14] | pest or weed control at 250 g/ha [4, 15]
30%: plant injury at 62.5 g/ha (corn (Zea mays) [1]; [14]) | pest or weed control at 15.625 g/ha [2, 13] | pest or weed control at 250 g/ha [5, 15] | pest or weed control at 15.625 g/ha ([10]; 15.625 g ai/ha, read-out: Foxtail, Giant damage rating (100=total damage to plant; 0=no damage to plant)) | pest or weed control at 250 g/ha ([11]; 250 g ai/ha, read-out: Velvetleaf damage rating (100=total damage to plant; 0=no damage to plant))
70%: pest or weed control at 62.5 g/ha [2, 14] | pest or weed control at 250 g/ha [3, 15] | pest or weed control at 15.625 g/ha [4, 13] | pest or weed control at 62.5 g/ha ([8]; 62.5 g ai/ha, 100=total damage to plant, 0=no damage to plant, read-out: Barnyardgrass damage rating)
